Values of other authors in patent publication US20130164335A1, “METHODS AND COMPOSITIONS FOR CELLULAR DRUG RELEASE” (NATIONAL HEALTH RESEARCH INSTITUTES, priority 2011, published 2013).

Conditions: after the first dosage; from a report

## Cc1cc2c(s1)Nc1ccccc1N=C2N1CCN(C)CC1 [OLZ, Olanzapine]
  time to reach steady-state: one week
